According to patent publication US8378097B2, “3-(1,3-benzodioxol-5-yl)-6-(4-cyclopropylpiperazin-1-yl)-pyridazine, its salts and solvates and its use as histamine H3 receptor antagonist” (High Point Pharmaceuticals, LLC, priority 2006, dated 2013):
Counter-ions that a name gives are not always drawn.

What was measured:
[1] = tests with mice: intake of food; format: in vivo; details: in tests with mice

c1cc2c(cc1-c1ccc(N3CCN(C4CC4)CC3)nn1)OCO2 [Example 1, 3-(1,3-Benzodioxol-5-yl)-6-(4-cyclopropylpiperazin-1-yl)pyridazine dihydrochloride]
effect on the intake of food [1]: reducing effect on the intake of food | mutagenic activity (mutagenic activity test): No mutagenic activity
